How the values were obtained:
barnyardgrass [1] = experiment: Test A postemergence; type: in vivo, Echinochloa crus-galli
Method in brief: (§1)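 Ratings express plant response from 0 (no effect) to 100 (complete control), judged visually against untreated controls after approximately 10 days in the greenhouse. Preemergence applications were made as directed soil sprays onto seeded loam–sand mix, and postemergence applications onto 2–10 cm plants at one- to two-leaf stage.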

oat, wild = experiment: Test C postemergence; type: in vivo, Avena fatua
Method in brief: (§2)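 Greenhouse pot test: preemergence application onto freshly seeded loam/sand mix, postemergence application onto seedlings (1–4 leaves, 2–18 cm) in peat-vermiculite substrate. Responses scored visually 13 to 15 days later relative to controls, where 0 means no effect and 100 means complete control; a dash indicates no result.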

kochia = experiment: Test C postemergence; type: in vivo, Kochia scoparia
Method in brief: as §2

barnyardgrass [2] = experiment: Test A preemergence; type: in vivo, Echinochloa crus-galli; conditions: preemergence
Method in brief: as §1

pigweed = experiment: Test A postemergence; type: in vivo, Amaranthus retroflexus
Method in brief: as §1

oilseed rape = experiment: Test C postemergence; type: in vivo, Brassica napus
Method in brief: as §2

barnyardgrass [3] = experiment: Test C preemergence; type: in vivo, Echinochloa crus-galli; conditions: for Barnyardgrass plant response rating: preemergence
Method in brief: as §2

morningglory [4] = experiment: Test A postemergence; type: in vivo, Ipomoea spp.
Method in brief: as §1

ryegrass, Italian = experiment: Test C postemergence; type: in vivo, Lolium multiflorum
Method in brief: as §2

crabgrass, large [5] = experiment: Test C preemergence; type: in vivo, Digitaria sanguinalis; conditions: for Crabgrass, Large plant response rating: preemergence
Method in brief: as §2

nutsedge, yellow = experiment: Test C preemergence; type: in vivo, Cyperus esculentus; conditions: for Nutsedge, Yellow plant response rating: preemergence, scale 0 to 100 (0 no effect, 100 complete control), 13 to 15 days
Method in brief: as §2

corn = experiment: Test A postemergence; type: in vivo, Zea mays
Method in brief: as §1

soybean = experiment: Test C postemergence; type: in vivo, Glycine max
Method in brief: as §2

morningglory [6] = experiment: Test C preemergence; type: in vivo, Ipomoea coccinea; conditions: for Morningglory plant response rating: preemergence
Method in brief: as §2

velvetleaf = experiment: Test C preemergence; type: in vivo, Abutilon theophrasti; conditions: for Velvetleaf plant response rating: preemergence
Method in brief: as §2

crabgrass, large [7] = experiment: Test A postemergence; type: in vivo, Digitaria sanguinalis
Method in brief: as §1

[8] = Postemergence, 500 g ai/ha, visual rating after approx. 10 days, 0 to 100 scale (0 no effect, 100 complete control)
[9] = postemergence, 125 g ai/ha, about 10 days, visual rating on 0 to 100 scale (0 no effect, 100 complete control)
[10] = Postemergence, 31 g ai/ha, visually evaluated after 13 to 15 days
[11] = postemergence, 62 g ai/ha, scale 0 to 100
[12] = postemergence, 250 g ai/ha, scale 0 to 100 (0 no effect, 100 complete control)
[13] = postemergence, 125 g ai/ha, scale 0 to 100, 0 no effect, 100 complete control
[14] = 62 g ai/ha, scale 0 to 100 (0 no effect, 100 complete control), 13 to 15 days
[15] = 125 g ai/ha, scale 0 to 100, 0 is no effect, 100 is complete control
[16] = 31 g ai/ha, visual rating, scale 0 to 100 (0 no effect, 100 complete control), 13 to 15 days

CCc1cc(C(=O)NCC(F)(F)F)nn1Cc1cc(C(F)(F)F)nn1C [Compound 108, 5-ethyl-1-[[1-methyl-3-(trifluoromethyl)-1H-pyrazole-5-yl]methyl]-N-(2,2,2-trifluoroethyl)-1H-pyrazole-3-carboxamide]
Barnyardgrass plant response rating (barnyardgrass [1]; [8]): 90 | Barnyardgrass plant response rating (barnyardgrass [1]; [9]): 90 | Plant response rating (scale of 0 to 100 where 0 is no effect and 100 is complete control), Oat, Wild (oat, wild; [10]): 10 | Oat, Wild plant response rating (oat, wild; [11]): 10 | Plant response rating, Oat, Wild (oat, wild; [12]): 20 | Plant response rating, Oat, Wild (oat, wild; [13]): 15 | Plant response rating (scale of 0 to 100 where 0 is no effect and 100 is complete control), Kochia (kochia; [10]): 40 | Kochia plant response rating (kochia; [11]): 60 | Plant response rating, Kochia (kochia; [12]): 90 | Plant response rating, Kochia (kochia; [13]): 80 | Barnyardgrass plant response rating (barnyardgrass [2]; 125 g ai/ha, visual injury, 0 to 100 scale, approx. 10 days): 90 | Barnyardgrass plant response rating (barnyardgrass [2]; 500 g ai/ha, visual injury after approx. 10 days, 0 to 100 scale (0 no effect, 100 complete control)): 100 | Pigweed plant response rating (pigweed; [8]): 100 | Pigweed plant response rating (pigweed; [9]): 90 | Plant response rating (scale of 0 to 100 where 0 is no effect and 100 is complete control), Oilseed Rape (oilseed rape; [10]): 50 | Oilseed Rape plant response rating (oilseed rape; [11]): 50 | Plant response rating, Oilseed Rape (oilseed rape; [12]): 55 | Plant response rating, Oilseed Rape (oilseed rape; [13]): 55 | Plant response rating (scale of 0 to 100), Barnyardgrass (barnyardgrass [3]; Preemergence, 250 g ai/ha): 100 | Barnyardgrass plant response rating (barnyardgrass [3]; 31 g ai/ha, scale 0 to 100 (0 no effect, 100 complete control), 13 to 15 days): 50 | Barnyardgrass plant response rating (barnyardgrass [3]; [14]): 100 | Barnyardgrass plant response rating (barnyardgrass [3]; [15]): 100 | Morningglory plant response rating (morningglory [4]; [8]): 100 | Morningglory plant response rating (morningglory [4]; [9]): 90 | Plant response rating (scale of 0 to 100 where 0 is no effect and 100 is complete control), Ryegrass, Italian (ryegrass, Italian; [10]): 0 | Ryegrass, Italian plant response rating (ryegrass, Italian; [11]): 5 | Plant response rating, Ryegrass, Italian (ryegrass, Italian; [12]): 20 | Plant response rating, Ryegrass, Italian (ryegrass, Italian; [13]): 5 | Plant response rating (scale of 0 to 100), Crabgrass, Large (crabgrass, large [5]; Preemergence, 250 g ai/ha): 100 | Crabgrass, Large plant response rating (crabgrass, large [5]; [16]): 100 | Crabgrass, Large plant response rating (crabgrass, large [5]; [14]): 100 | Crabgrass, Large plant response rating (crabgrass, large [5]; [15]): 100 | Plant response rating (scale of 0 to 100), Nutsedge, Yellow (nutsedge, yellow; Preemergence, 250 g ai/ha): 85 | Nutsedge, Yellow plant response rating (nutsedge, yellow; 31 g ai/ha, visual rating): 5 | Nutsedge, Yellow plant response rating (nutsedge, yellow; 62 g ai/ha): 40 | Corn plant response rating (corn; [8]): 100 | Corn plant response rating (corn; [9]): 80 | Plant response rating (scale of 0 to 100 where 0 is no effect and 100 is complete control), Soybean (soybean; [10]): 30 | Soybean plant response rating (soybean; [11]): 90 | Plant response rating, Soybean (soybean; [12]): 98 | Plant response rating, Soybean (soybean; [13]): 90 | Plant response rating (scale of 0 to 100), Morningglory (morningglory [6]; Preemergence, 250 g ai/ha): 100 | Morningglory plant response rating (morningglory [6]; [16]): 98 | Morningglory plant response rating (morningglory [6]; [14]): 100 | Morningglory plant response rating (morningglory [6]; [15]): 100 | Plant response rating (scale of 0 to 100), Velvetleaf (velvetleaf; Preemergence, 250 g ai/ha): 100 | Velvetleaf plant response rating (velvetleaf; [16]): 55 | Velvetleaf plant response rating (velvetleaf; [14]): 100 | Velvetleaf plant response rating (velvetleaf; [15]): 100 | Crabgrass, Large plant response rating (crabgrass, large [7]; [8]): 100 | Crabgrass, Large plant response rating (crabgrass, large [7]; [9]): 90
